Reference: patent US10011552B2, “Process for preparation of herbicidal carboxylic acid salts” (ROTAM AGROCHEM INTERNATIONAL COMPANY LIMITED, priority 2013, dated 2018)

assay: pH value of the dried carboxylic acid salt in water; type: physicochemical; settings: dried salt cake dissolved in water

Compared with O=C([O-])c1c(Cl)ccc2cc(Cl)cnc12.[Na+] [quinclorac-sodium], COc1c(Cl)ccc(Cl)c1C(=O)[O-].[Na+] [dicamba-sodium] is lower in “pH value in water” value: 10 for the first, 7 for the second.

Going from Cc1cc(Cl)ccc1OCC(=O)[O-].[K+] [MCPA-potassium] to O=C(O)c1nc(Cl)ccc1Cl.OCCNCCO [clopyralid-bis(2-hydroxyethyl)ammonium], the “pH value in water” value falls from 9 to 8.
